From article PMC3326523, “Histone Recognition and Large-Scale Structural Analysis of the Human Bromodomain Family” (Cell, 2012)
Where two headings read alike, the source gives them in different places. Where no end group is shown, it is not given here.

Key:
33 representative BRDs = test: SPOT peptide array of singly acetylated histone peptides; format: binding, human; details: His6-tagged BRDs 1 μM; in words
Procedure: Peptides were synthesized on cellulose membranes using a MultiPep SPOT peptide arrayer (Intavis). His6-tagged BRDs were added to a final concentration of 1 μM, and blots were developed using an ECL kit (Thermo Scientific) following the manufacturer's protocol.
Three different types of SPOT membrane were utilized in order to probe preferences of BRD recognition sites: the first array contained peptides from all four core histones (H2A, H2B, H3 and H4) covering all possible lysine acetylation sites, with peptide sizes ranging from 10 to 14 amino acids. […]
Peptides for the first two arrays were synthesized directly on cellulose membranes (Intavis) using a MultiPep SPOT peptide arrayer (Intavis) and commercially available standard (Intavis) or modified (Bachem) L-amino acid precursors as previously described ([Nady et al., 2008]). The quality of the synthesized array was evaluated as follows: i) immune reactive peptides were identified by incubation of the membrane with an anti-His antibody in the absence of any His6-tagged BRD. […]
Each membrane was washed 3 times in PBST, blocked for 1 hr with 10% milk in PBST, and washed again 3 × 5 min with PBST. […] Chem-illuminescence was detected with an Image reader (Fujifilm LAS-4000 ver.2.0) with an incremental exposure time of 5 min for a total of 80 min. […]

CREBBP = biological target: T1, CREBBP (Homo sapiens, UniProt Q92793); test: Isothermal titration calorimetry (ITC) of histone peptides; format: binding
T1 construct: His6 tag with TEV cleavage site (N, cleaved yes); made in house; host or cells: E. coli BL21(DE3)-R3
T1 sequence (Q92793 with tags, fused parts or gaps): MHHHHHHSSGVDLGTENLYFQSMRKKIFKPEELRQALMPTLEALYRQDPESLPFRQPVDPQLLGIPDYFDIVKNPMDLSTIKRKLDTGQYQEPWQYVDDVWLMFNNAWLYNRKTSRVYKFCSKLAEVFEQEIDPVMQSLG

Row | Compound | interaction with BRDs in SPOT array of singly acetylated peptides (33 representative BRDs) | other results
1 | H2BK85: promiscuous H2BK85-containing array peptide (AHYNK(Ac)RSTITSRE) | interacted with most BRDs | –
2 | CC(=O)NCCCC[C@H](NC(=O)CNC(=O)CNC(=O)[C@@H](NC(=O)[C@H](CO)NC(=O)[C@@H](N)CCCCN)[C@@H](C)O)C(=O)N[C@@H](C)C(=O)N1CCC[C@H]1C(=O)N[C@@H](CCCNC(=N)N)C(=O)N[C@@H](CCCCN)C(=O)N[C@@H](CCC(N)=O)C(=O)N[C@@H](Cc1ccc(O)cc1)C(=O)O [H3K14ac] | – | Kd (CREBBP): 733 µM
3 | CC(=O)NCCCC[C@H](NC(=O)CNC(=O)CNC(=O)[C@@H](NC(=O)[C@H](COP(=O)(O)O)NC(=O)[C@@H](N)CCCCN)[C@@H](C)O)C(=O)N[C@@H](C)C(=O)N1CCC[C@H]1C(=O)N[C@@H](CCCNC(=N)N)C(=O)N[C@@H](CCCCNC(C)=O)C(=O)N[C@@H](CCC(N)=O)C(=O)N[C@@H](Cc1ccc(O)cc1)C(=O)O [H3pS10K14acK18ac] | – | Kd (CREBBP; ITC, 10 or 15°C, 50 mM HEPES pH 7.5, 150 mM NaCl, read-out: KD of CREBBP): 131 µM
4 | H2AK36: promiscuous H2AK36-containing array peptide (LLRK(Ac)GNYSERVGA) | interacted with most BRDs | –
